These results are taken from patent US20250188078A1, “SMALL MOLECULE INHIBITORS OF THE CRL4 UBIQUITIN LIGASE” (Cornell University, priority 2022, published 2025).

The target of series [1] is T1, DDB1-BPB (Homo sapiens (Human), UniProt Q16531). As to the kind of experiment: Surface Plasmon Resonance (SPR) binding to DDB1-BPB. To be noted: DDB1-BPB immobilized. From the text: Kd represents dissociation constant, which measures the affinity of small molecule binding to the scaffold DDB1-BPB by Surface Plasmon Resonance (SPR) (https://www.bio-rad.com/webroot/web/pdf/lsr/literature/Bulletin_6414.pdf, hereby incorporated by reference in its entirety) (see Table 1, column 8). To assess the interaction between DDB1-BPB and compounds, a multi-parametric SPR instrument (BioRad ProteON XPR360) was used. DDB1-BPB was immobilized onto the GLH sensor surface in a variety of ways as follows: flow channels were activated in parallel with 1/20 diluted EDC/SNHS. DDB1-BPB was diluted to 0.1 mg/mL in sodium acetate pH 4.5 and directly coupled onto channel for 4 min. Excess reactive esters were blocked with a 5-min injection of 1 M ethanolamine. Mean immobilization levels were 17,000 RU with <2% variation along a strip. One channel was left unmodified to provide an additional reference surface. Next, the binding kinetics of compounds on surfaces was determined in a single injection using a “one-shot” kinetic mode. Typically, compound was prepared as a twofold serial dilution (0, 3.125, 6.25, 12.5, 25, 50 μM) and injected for 60 s at […]. Dissociation was monitored for 800 s. Surfaces were regenerated with multiple 30-s pulses of 60 mM phosphoric acid so that the experiment could be reproduced. All resulting sensor grams were collected and analyzed using the ProteOn manager software.

The target of series [2] is T1, DDB1-BPB. As to the kind of experiment: Microscale Thermophoresis (MST) binding to DDB1-BPB. The note with it: labeled DDB1-BPB, 25° C. The procedure: Kd represents dissociation constant, which measures the affinity of small molecule binding to the scaffold DDB1-BPB by Microscale Thermophoresis (MST) (see Table 1, column 9). MST experiments were performed on a Monolith NT 115 system (Nano Temper Technologies, Munich, Germany) using 100% LED and 60% IR-laser power (https://physiology.case.edu/media/eq manuals/eq_manual_nano-temper_mst_starting_guide.pdf, hereby incorporated by reference in its entirety for all purposes). The labeling of DDB1-BPB ([…]) was performed in labeling buffer with NHS-Red reactive dye (30 μM) (Nanotemper), which reacts efficiently with the primary amines of the proteins to form a stable dye protein conjugates. The labeling reaction was carried out at RT. A 16-point serial dilution (1:1) was prepared for compound at the final concentration ranged from 200 µM to 3 nM in PBS containing 0.05% tween. The samples were filled into Premium capillaries and measurements were conducted at 25° C. An equation implemented by the software MO-S002 MO Affinity Analysis, provided by the manufacturer, was used for fitting normalized fluorescence values at different concentrations of ligands.

Series [3] can be described thus: Pharmacokinetic study: compound concentration in MDA-MB-468 xenograft tumor tissue. The class given is in vivo, mouse. To be noted: for Tissue concentration: individual tumors. The procedure:
Female athymic Nu/J nude mice, 6 weeks old were purchased from the Jackson Laboratory. Mice were housed in laminar air-flow cabinet under specific pathogen-free conditions. 5×10^6 MDA-MB-468 cells in 100 μl diluted BD Matrigel™ Basement Membrane Matrix (BD Bioscience, Matrix:PBS is 1:1) were injected subcutaneously in each flank of mouse. We detected tumors once every four days by fine calipers measurement. When tumor size reached 100 mm^3, mice were randomly grouped and treated with DMSO or 50 mg/kg PA99 compound. The stock solution of compound was 10 mg/ml, which formulated with 10% DMSO, 10% Tween-80 and 80% H2O. PA99 was injected into mouse by intraperitoneal injection ([…]) three times per week. Mouse weights and tumor volumes were measured twice/week. For the pharmacokinetic study, samples were collected after compound injection (30 mins, 1 h, 3 h, 6 h). Four tumor samples were collected at each time point for mass spectrometry analysis to determine the compound concentrations in tumor tissues.

A further series concerns MCF7 breast cancer cells. As to the kind of experiment: Cell killing in MCF7 cells (CellTiter Glo). The note with it: Homo sapiens, MCF7, 192 h; Table 3, 0 to 20 μM compound, 8 days treatment. The class given is cell-based. The procedure:
CUL4A^high MDA-MB-468, CUL4^low (T47D), and MCF7 breast cancer cells were seeded in 96 well plates separately. Cells were treated with DMSO, or from 0 to 20 μM compound respectively. Replace with fresh medium and compounds every 48 hours. After 8 days treatment, cell viability was examined by CellTiter Glo kit (Promega #7570). First, transfer the appropriate volume (10 ml for Cat. #G7570) of CellTiter-Glo® Buffer into the amber bottle containing CellTiter-Glo® Substrate to reconstitute the lyophilized enzyme/substrate mixture. This forms the CellTiter-Glo® Reagent. Second, add CellTiter-Glo® Reagent in an equal volume (100 μl per well for 96-well plates) to all wells. Mix contents for 2 minutes on an orbital shaker to induce cell lysis. Incubate at room temperature for 15 minutes to stabilize luminescent signal. Then record luminescence. EC50 concentration was calculated by Prism 8 XY analysis nonlinear regression (curve fit-Log(inhibitor) vs response).
In general terms: In ATP-based viability assays light output follows the ATP content of the culture.

For series [4], the system named is CUL4A^high MDA-MB-468 and CUL4^low (T47D) cells. As to the kind of experiment: Selective killing of CUL4A^high tumors (MDA-MB-468 vs T47D, Cell Titer Glo). To be noted: FIG. 10, 8 days treatment. The class given is cell-based. Here is the method:
CUL4A^high MDA-MB-468 breast cancer cells and CUL4^low (T47D) cells were seeded in 96 well plates. After 24 hours, cells were treated with DMSO or compound PA99. After 8 days treatment, cell viability was examined by using CellTiter Glo kit (Promega #7570) following the manufacturer's guidelines. EC50 concentration was calculated by Prism 8 XY analysis nonlinear regression (curve fit-Log(inhibitor) vs response). Lower EC50 indicates high cell killing potential in CUL4^high MDA-MB-468 cells.

The nature of series [5]: Dynamic light scattering (DLS) solubility assay. The class given is physicochemical. The note with it: normalized intensity ratio of 25 μM compound vs DMSO, in PBS. In short, it runs like this:
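Compounds diluted from DMSO into PBS at final concentrations of 200 μM to 0.78 μM, in triplicate, and aggregation measured by light scattering intensity. A ratio above 2 scores insoluble (−), below 2 soluble (+), and around 2 (+/−).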

Several values for one entry are separate records, joined by “and”; a condition that tells them apart may be missing. Equal entries are not always repeated.

T1 sequence (Q16531 403-706): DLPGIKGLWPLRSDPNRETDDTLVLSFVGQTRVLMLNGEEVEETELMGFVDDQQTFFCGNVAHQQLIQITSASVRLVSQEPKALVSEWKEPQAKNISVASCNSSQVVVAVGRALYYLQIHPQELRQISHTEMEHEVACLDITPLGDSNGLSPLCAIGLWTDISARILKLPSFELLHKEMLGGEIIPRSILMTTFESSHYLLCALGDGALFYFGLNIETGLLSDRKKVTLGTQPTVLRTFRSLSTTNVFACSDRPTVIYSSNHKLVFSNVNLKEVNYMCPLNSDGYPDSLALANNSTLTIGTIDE

The term Kd denotes the concentration at which binding is half-saturated. Lower therefore signals higher affinity. For orientation: EC50 means the concentration giving half of the maximal effect. Higher therefore signals weaker potency. As to `CN(c1ccc(-c2nc(C(=O)O)cc3c2[nH]c2cccc(F)c23)cc1)S(=O)(=O)c1ccccc1` [PA99, 5-fluoro-1-(4-(N-methylphenylsulfonamido)phenyl)-9H-pyrido[3,4-b]indole-3-carboxylic acid], the dissociation constant Kd at DDB1-BPB [1] came to 2130 nM; at DDB1-BPB [2], 2970 nM. For the same molecule, the Tissue concentration in series [3] (30 min after 50 mg/kg intraperitoneal injection) is 3910 ng/mL and 8.2 μM and 666 ng/mL and 1.4 μM (2×) and 670 ng/mL and 1010 ng/mL and 2.1 μM; in series [3] (1 hr after 50 mg/kg intraperitoneal injection) it was 5780 ng/mL and 12.2 μM and 1790 ng/mL and 3.8 μM and 1230 ng/mL and 2.6 μM and 870 ng/mL and 1.8 μM; in series [3] (3 hr after 50 mg/kg intraperitoneal injection) it was 1400 ng/mL and 2.9 μM and 1340 ng/mL and 2.8 μM and 392 ng/mL and 0.8 μM and 290 ng/mL and 0.6 μM; in series [3] (6 hr after 50 mg/kg intraperitoneal injection), 419 ng/mL and 0.88 μM and 342 ng/mL and 0.72 μM and 1440 ng/mL and 3.0 μM and 913 ng/mL and 1.9 μM. Besides, in series [3] (female, athymic Nu/J nude, mouse, MDA-MB-468 xenograft tumor, intraperitoneal, 50 mg/kg, 30 min, average of four tumors), the concentration at 30 min was 1560 ng/mL and 3.3 µM. Also, the concentration at 1 h in series [3] (female, athymic Nu/J nude, mouse, MDA-MB-468 xenograft tumor, intraperitoneal, 50 mg/kg, 1 hr, average of four tumors) was 2420 ng/mL and 5.1 µM. In series [3] (female, athymic Nu/J nude, mouse, MDA-MB-468 xenograft tumor, intraperitoneal, 50 mg/kg, 3 hr, average of four tumors), the concentration at 3 h was 856 ng/mL and 1.8 µM. Also, the concentration at 6 h in series [3] (female, athymic Nu/J nude, mouse, MDA-MB-468 xenograft tumor, intraperitoneal, 50 mg/kg, 6 hr, average of four tumors) was 779 ng/mL and 1.6 µM. The EC50 in the series on MCF7 breast cancer cells stood at 19500 nM. For the same molecule, the “Killing of CUL4A^high tumors” value in series [4] is on record as “selective killing”.
Consider `CN(c1ccc(-c2nc(C(=O)O)cc3c2[nH]c2ccc(F)cc23)cc1)S(=O)(=O)c1ccccc1` [PA93], for which the “Solubility (DLS Assay)” value in series [5] is recorded as “-(insoluble)”. Besides, the “Kd (MST)” value at DDB1-BPB [2] was “Insoluble”.
